Bounds are passed on as bounds.

The test system of this assay is Dirofilaria immitis microfilariae and 4th stage larvae (L4). Nature of the assay: Heartworm screen Dirofilaria immitis (DiMF and DiL4 assays). The assay is classed as cell-based. To be noted: read-out: D. immitis Act class. How it is done: Heartworm Screen Dirofilaria immitis (D. immitis)
Dirofilaria immitis, Microfilaria (DiMF) Assay. Compounds were dissolved and serially diluted in DMSO. Aliquots were spotted to the empty wells of assay plates. Media and microfilariae of Dirofilaria immitis were added to each well to dilute the test compounds to the desired concentrations. Assay plates were incubated for approximately 72 hours, and the larvae in each well were observed microscopically for drug effect. Microfilariae in each well were assessed subjectively for survival or paralysis, and results were reported as Minimum Effective Dose (MED).
Dirofilaria immitis, L4 stage (DiL4) Assay. Compounds were dissolved and serially diluted in DMSO. Aliquots were spotted to the empty wells of assay plates. Media and 4th stage larvae (L4) of Dirofilaria immitis were added to each well to dilute the test compounds to the desired concentrations. Assay plates were incubated for approximately 72 hours, and the larvae in each well were observed microscopically for drug effect. Larvae in each well were assessed subjectively for survival or paralysis, and results were reported as Minimum Effective Dose (MED).
Active and selective (DiL4 vs. DiMF potency) example compounds were subsequently evaluated in heartworm positive dog studies to correlate the in vitro selectivity profile with in vivo effects on circulating microfilariae.
Take `CCOc1ccc(-c2csc(Nc3ncccc3C3CC3)n2)nc1` [Example 83, N-(3-cyclopropylpyridin-2-yl)-4-(5-ethoxypyridin-2-yl)thiazol-2-amine]: the IC50 was 500 to 5000 nM.

With `c1ccc(-c2csc(Nc3cc(C4CC4)ccn3)n2)nc1` [Example 176, N-(4-cyclopropyl-pyridin-2-yl)-4-(pyridin-2-yl)thiazol-2-amine], the IC50 is less than 200 nM.

`CCOc1cccc(-c2csc(Nc3ncccc3C)n2)n1` [Example 71]: the IC50 lay within 500 to 5000 nM.

Consider `CC(C)c1ccc(Nc2nc(-c3ccccn3)cs2)nc1` [Example 219, N-(5-isopropylpyridin-2-yl)-4-(pyridin-2-yl)thiazol-2-amine], for which the IC50 was less than 200 nM. As to `CCOc1cnc(-c2csc(Nc3cc(C)ccn3)n2)c(C)c1` [Example 74, 4-(5-ethoxy-3-methylpyridin-2-yl)-N-(4-methylpyridin-2-yl)thiazol-2-amine], the IC50 is less than 200 nM. The figure for `c1ccc(-c2csc(Nc3cc(C4CCC4)ccn3)n2)nc1` [Example 168, N-(4-cyclobutyl-pyridin-2-yl)-4-(pyridin-2-yl)thiazol-2-amine] is less than 200 nM; for `c1ccc(-c2csc(Nc3ccc(C4CCCC4)cn3)n2)nc1` [Example 138, N-(5-cyclopentyl-pyridin-2-yl)-4-(pyridin-2-yl)thiazol-2-amine] it is less than 200 nM. Consider `Cc1ccnc(-c2csc(Nc3ncccc3-c3ccccc3)n2)c1` [Example 99, 4-(4-methylpyridin-2-yl)-N-(3-phenylpyridin-2-yl)thiazol-2-amine], for which the IC50 is less than 200 nM. In the case of `CCc1cnc(Nc2nc(-c3ccccn3)cs2)cc1C(F)(F)F` [Example 130, N-(5-ethyl-4-(trifluoro-methyl)pyridin-2-yl)-4-(pyridin-2-yl)thiazol-2-amine], the IC50 is less than 200 nM.

Turning to `CCOc1ccc(-c2csc(Nc3cc(C)ccn3)n2)nc1` [Example 91, 4-(5-ethoxypyridin-2-yl)-N-(4-methylpyridin-2-yl)thiazol-2-amine], the IC50 is less than 200 nM. Regarding `CCOc1ccc(-c2csc(Nc3cccc(C)n3)n2)nc1` [Example 90, 4-(5-ethoxypyridin-2-yl)-N-(6-methylpyridin-2-yl)thiazol-2-amine], the IC50 was in the range of 500 to 5000 nM. `CCOc1cccnc1-c1csc(Nc2cc(C)ccn2)n1` [Example 72, 4-(3-ethoxypyridin-2-yl)-N-(4-methylpyridin-2-yl)thiazol-2-amine]: the IC50 is less than 200 nM. On to `CCOc1ccnc(-c2csc(Nc3cc(C)ccn3)n2)c1` [Example 224, 4-(4-ethoxypyridin-2-yl)-N-(4-methylpyridin-2-yl)thiazol-2-amine], for which the IC50 lay within 200 to 500 nM.

For the molecule `Cc1ccnc(Nc2nc(-c3cccnc3)cs2)c1` [Example 226, N-(4-methylpyridin-2-yl)-4-(pyridin-3-yl)thiazol-2-amine], the IC50 was 200 to 500 nM. Take `Cc1ccnc(Nc2nc(-c3ncccc3-c3ccccc3)cs2)c1` [Example 103, N-(4-methylpyridin-2-yl)-4-(3-phenylpyridin-2-yl)thiazol-2-amine]: the IC50 was less than 200 nM.

Turning to `CCc1sc(Nc2cc(C)ccn2)nc1-c1ccccn1` [Example 184, 5-ethyl-N-(4-methylpyridin-2-yl)-4-(pyridin-2-yl)thiazol-2-amine], the IC50 was in the range of 200 to 500 nM. For the molecule `Cc1cnc(Nc2nc(-c3ccccn3)cs2)cc1C(F)(F)F` [Example 129, N-(5-methyl-4-(trifluoro-methyl)pyridin-2-yl)-4-(pyridin-2-yl)thiazol-2-amine], the IC50 was less than 200 nM. `c1ccc(-c2ccc(Nc3nc(-c4ccccn4)cs3)nc2)cc1` [Example 221, N-(5-phenylpyridin-2-yl)-4-(pyridin-2-yl)thiazol-2-amine]: the IC50 is less than 200 nM. For the molecule `FC(F)(F)c1ccc(Nc2nc(-c3ccccn3)cs2)nc1` [Example 217, 4-(pyridin-2-yl)-N-(5-(trifluoromethyl)pyridin-2-yl)thiazol-2-amine], the IC50 is less than 200 nM. As to `Cc1ccnc(Nc2nc(-c3ccccn3)c(CCOC3CCC3)s2)c1` [Example 180, 5-(2-cyclobutoxy-ethyl)-N-(4-methylpyridin-2-yl)-4-(pyridin-2-yl)thiazol-2-amine], the IC50 was less than 200 nM.

As for `CC(=O)N(C)c1cc(C(F)(F)F)cnc1Nc1nc(-c2ccc(OC(C)C)cn2)cs1` [Example 93, N-(2-(4-(5-isopropoxypyridin-2-yl)thiazol-2-ylamino)-5-(trifluoromethyl)pyridin-3-yl)-N-methylacetamide], the IC50 lay in the range of 500 to 5000 nM.

On to `Cc1ccnc(Nc2nc(-c3cc(OC4CN(C)C4)ccn3)cs2)c1` [Example 98, 4-(4-(1-methylazetidin-3-yloxy)pyridin-2-yl)-N-(4-methylpyridin-2-yl)thiazol-2-amine], for which the IC50 is 500 to 5000 nM. With `c1ccc(-c2ccnc(Nc3nc(-c4ccccn4)cs3)c2)cc1` [Example 126, N-(4-phenylpyridin-2-yl)-4-(pyridin-2-yl)thiazol-2-amine], the IC50 is less than 200 nM. Consider `CC(=O)N(C)c1cc(C(F)(F)F)cnc1Nc1nc(-c2cc(OC(C)C)ccn2)cs1` [Example 82, N-(2-(4-(4-isopropoxypyridin-2-yl)thiazol-2-ylamino)-5-(trifluoromethyl)pyridin-3-yl)-N-methylacetamide], for which the IC50 lay in the range of 200 to 500 nM. The result for `CCOc1ccc(-c2csc(Nc3ncc(C)cc3C)n2)nc1` [Example 88, N-(3,5-dimethylpyridin-2-yl)-4-(5-ethoxypyridin-2-yl)thiazol-2-amine] reads less than 200 nM; that for `CCOc1ccc(-c2csc(Nc3ncc(C(F)(F)F)cc3C)n2)nc1` [Example 84, 4-(5-ethoxypyridin-2-yl)-N-(3-methyl-5-(trifluoromethyl)pyridin-2-yl)thiazol-2-amine], 200 to 500 nM. `CCOc1ccc(-c2csc(Nc3ccc(C)cn3)n2)nc1` [Example 81, 4-(5-ethoxypyridin-2-yl)-N-(5-methylpyridin-2-yl)thiazol-2-amine]: the IC50 was less than 200 nM. For the molecule `CCOc1ccc(-c2csc(Nc3nc(C)ccc3C)n2)nc1` [Example 86, N-(3,6-dimethylpyridin-2-yl)-4-(5-ethoxypyridin-2-yl)thiazol-2-amine], the IC50 lay within 200 to 500 nM. Take `c1ccc(-c2csc(Nc3cc4[nH]ccc4cn3)n2)nc1` [Example 136, 4-(pyridin-2-yl)-N-(1H-pyrrolo [3,2-c]pyridin-6-yl)thiazol-2-amine]: the IC50 lay within 500 to 5000 nM. `CCCc1ccnc(Nc2nc(-c3ccccn3)cs2)c1` [Example 172, N-(4-propylpyridin-2-yl)-4-(pyridin-2-yl)thiazol-2-amine]: the IC50 was less than 200 nM. For the molecule `Cc1ccnc(Nc2nc(-c3cc(Cl)ccn3)cs2)c1` [Example 223, 4-(4-chloropyridin-2-yl)-N-(4-methylpyridin-2-yl)thiazol-2-amine], the IC50 was less than 200 nM. As to `c1ccc(-c2csc(Nc3cc(-c4cnccn4)ccn3)n2)nc1` [Example 173, N-(4-(pyrazin-2-yl)pyridin-2-yl)-4-(pyridin-2-yl)thiazol-2-amine], the IC50 lay within 200 to 500 nM. `Cc1ccnc(Nc2nc(-c3ccccn3)c(COCC3CCC3)s2)c1` [Example 182, 5-((cyclobutyl-methoxy)methyl)-N-(4-methylpyridin-2-yl)-4-(pyridin-2-yl)thiazol-2-amine]: the IC50 is less than 200 nM.

For `CSc1ccc(-c2csc(Nc3ncccc3C)n2)nc1` [Example 80, N-(3-methylpyridin-2-yl)-4-(5-(methylthio)pyridin-2-yl)thiazol-2-amine], the IC50 is less than 200 nM. For `O=C(NC1CC1)c1ccnc(Nc2nc(-c3ccccn3)cs2)c1` [Example 170, N-cyclopropyl-2-(4-(pyridin-2-yl)thiazol-2-ylamino) isonicotinamide], the IC50 is 500 to 5000 nM.

`Cc1ccc(-c2csc(Nc3cc(C)ccn3)n2)nc1` [Example 1, N-(4-Methylpyridin-2-yl)-4-(5-methylpyridin-2-yl)thiazol-2-amine]: the IC50 is less than 200 nM.

Regarding `CC(=O)N(C)c1cc(C(F)(F)F)cnc1Nc1nc(-c2cc3c(cn2)N(C)CC3)cs1` [Example 76, N-methyl-N-(2-(4-(1-methyl-2,3-dihydro-1H-pyrrolo[2,3-c]pyridin-5-yl)thiazol-2-ylamino)-5-(trifluoromethyl)pyridin-3-yl)acetamide], the IC50 is 500 to 5000 nM.

`Cc1ccnc(Nc2nc(-c3ccc(Cl)cn3)cs2)c1` [Example 89, 4-(5-chloropyridin-2-yl)-N-(4-methylpyridin-2-yl)thiazol-2-amine]: the IC50 was in the range of 200 to 500 nM. On to `Cc1ccnc(Nc2nc(-c3ncccc3C#N)cs2)c1` [Example 92, 2-(2-(4-methylpyridin-2-ylamino)thiazol-4-yl)nicotinonitrile], for which the IC50 lay within 500 to 5000 nM. In the case of `CCOc1cnc(-c2csc(Nc3ncccc3C)n2)c(C)c1` [Example 75, 4-(5-ethoxy-3-methylpyridin-2-yl)-N-(3-methylpyridin-2-yl)thiazol-2-amine], the IC50 is less than 200 nM.

`CNC(=O)c1ccc(-c2ccnc(Nc3nc(-c4ccccn4)cs3)c2)cc1` [Example 171, N-methyl-4-(2-(4-(pyridin-2-yl)thiazol-2-ylamino)pyridin-4-yl)benzamide]: the IC50 lay within 500 to 5000 nM. The result for `c1ccc(-c2csc(Nc3ccc4cc[nH]c4n3)n2)nc1` [Example 134, 4-(pyridin-2-yl)-N-(1H-pyrrolo [2,3-b]pyridin-6-yl)thiazol-2-amine] reads 500 to 5000 nM. Consider `Cc1ccnc(Nc2nc(-c3cc(OC4COC4)ccn3)cs2)c1` [Example 102, N-(4-methylpyridin-2-yl)-4-(4-(oxetan-3-yloxy)pyridin-2-yl)thiazol-2-amine], for which the IC50 was 500 to 5000 nM.
